Molecules are shown by their SMILES.

For orientation: EC50 means the concentration giving half of the maximal effect. The low end stands for greater potency, the high end for weaker potency.

The test system of experiment [1] is IP1 production in the mouse hippocampus. As to the kind of experiment: In vivo IP1 assay after repeated administration for 13 days. The conditions noted are these: for Basal IP1 level in the mouse hippocampus: after repeated treatment 10 mg/kg p.o. for 13 days, mean ± SEM, n = 10; for magnitude of IP1 increase in mouse hippocampus after 13 days of pretreatment: pretreatment 10 mg/kg p.o. once daily, vs single administration. As for the experimental part: Eight‐week‐old Long‐Evans rats, 8‐ to 9‐week‐old C57BL/6J mice, and 22‐ or 29‐week‐old M1R KO mice and their WT littermates were used in this study. On the day of the experiment, animals were placed in individual cages and acclimated for more than 1 hour. A test compound or vehicle was administered 2 hours before the animals were sacrificed. […] LiCl (10 mmol/kg, s.c.) was injected 1 hour before sacrifice. In the repeated administration study, a test compound was administered to mice once daily for 13 days; on day 14, animals were treated with a test compound and LiCl (10 mmol/kg, s.c.) and then sacrificed. Animals were killed by decapitation, and blood was collected into tubes containing ethylenediaminetetraacetic acid for pharmacokinetic analysis; brains were quickly dissected, frozen on dry ice, and stored at −80°C until analysis. Brain tissues were homogenized in 19 (for rat tissues) or 39 (for mouse tissue) volumes of homogenization buffer (10 mmol/L HEPES pH 7.4, 50 mmol/L LiCl, 150 mmol/L NaCl, and 1% Triton X‐100), and the homogenate was incubated on a rotator for 1 hour, followed by centrifugation. The supernatant was diluted with 39 (for rat tissues) or 19 (for mouse tissues) volumes of dilution buffer (10 mmol/L HEPES pH 7.4, 50 mmol/L LiCl, and 150 mmol/L NaCl). IP1 and protein concentrations in the diluted supernatant were measured using IP‐One HTRF assay kit (Cisbio Bioassays) and BCA Protein Assay Kit (Thermo Fisher Scientific Inc), respectively, according to the manufacturers’ instructions. IP1 production was expressed as the ratio of IP1 to protein concentrations.

Experiment [2] concerns the target T1, human M1R (Homo sapiens, UniProt P11229).
T1 sequence (P11229 1-460): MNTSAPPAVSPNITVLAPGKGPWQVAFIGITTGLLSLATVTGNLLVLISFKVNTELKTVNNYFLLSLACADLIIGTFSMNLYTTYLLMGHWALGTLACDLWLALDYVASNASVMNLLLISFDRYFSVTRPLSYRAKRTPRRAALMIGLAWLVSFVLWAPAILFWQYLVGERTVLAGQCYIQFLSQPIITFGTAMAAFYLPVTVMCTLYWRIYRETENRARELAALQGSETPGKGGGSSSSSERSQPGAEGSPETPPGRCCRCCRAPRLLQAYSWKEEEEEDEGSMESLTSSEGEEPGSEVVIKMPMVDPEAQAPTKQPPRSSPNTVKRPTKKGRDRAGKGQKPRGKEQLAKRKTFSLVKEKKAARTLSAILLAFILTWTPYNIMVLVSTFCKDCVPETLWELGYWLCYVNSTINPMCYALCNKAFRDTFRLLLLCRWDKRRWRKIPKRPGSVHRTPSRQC
As to the kind of experiment: [3H]‐pirenzepine binding assay (cooperativity, allosteric ternary complex model). The arrangement: expressed in transfected cells. The conditions noted are these: between PAM and ACh; for Cooperativity Log α: 95% confidence intervals in parentheses. As for the experimental part: Cell membranes from FreeStyle 293 cells transiently expressing human M1R were incubated with T‐495 or MK‐7622 (0.1‐30 μmol/L), ACh (0.003‐3000 μmol/L), and 4 nmol/L [^3H]‐pirenzepine (PerkinElmer) in assay buffer (20 mmol/L HEPES, 100 mmol/L NaCl, 10 mmol/L MgCl2, and 0.1% fatty acid free BSA) for 2 hours at room temperature. The binding was terminated by filtration through GF/C filter plates (PerkinElmer) using a cell harvester (PerkinElmer) and five washed with 300 μL of 50 mmol/L Tris‐HCl. The GF/C plates were dried at 42°C; then, 25 μL of microscint 0 (PerkinElmer) was added. Radioactivity was counted using Topcount (PerkinElmer). Nonspecific binding was defined in the presence of 10 μmol/L atropine. To calculate the cooperativity of a PAM, the [^3H]‐pirenzepine binding assay data were fitted to the allosteric ternary complex model,35 using GraphPad Prism 5 software: Y=C/KC+αBC[B][C]/KBKC/1+A/KA+B/KB+C/KC+αAB[A][B]/KAKB+αBC[B][C]/KBKC
where Y is the fractional specific [^3H]‐pirenzepine binding; [A], [B], and [C] are the concentrations of ACh, a PAM, and [^3H]‐pirenzepine, respectively; K A, K B, and K C are the equilibrium dissociation constants of ACh, a PAM, and [^3H]‐pirenzepine, respectively; and αAB and αBC are the cooperativities between a PAM and ACh or [^3H]‐pirenzepine, respectively.

For experiment [3], the target named is T1, human M1R. As to the kind of experiment: Ca2+ mobilization assay, PAM activity (with EC20 ACh), CHO‐K1 cells. The class given is cell-based. The arrangement: expressed in transfected cells; host or cells: CHO-K1. As for the experimental part:
Chinese hamster ovary (CHO)‐K1 cells expressing M1R–M5R were plated on a 96‐well black, clear bottom plate at 30 000 cells/well and incubated at 37°C in an atmosphere of 5% CO2 for 1 day. On the day of the assay, cells were incubated with calcium dye buffer (Hanks’ Balanced Salt Solution (HBSS) containing 20 mmol/L HEPES, 0.1% fatty acid‐free bovine serum albumin (BSA), 0.08% pluronic F127 (Dojindo Laboratories), 2.5 μg/mL Fluo‐4 (Dojindo Laboratories), and 1.25 mmol/L probenecid (Dojindo Laboratories)) for 30 minutes at 37°C in an atmosphere of 5% CO2 and then incubated for 30 minutes at room temperature. To measure Ca^2+ mobilization using CellLux (PerkinElmer), cells were stimulated with T‐495 or MK‐7622 (0.01‐1000 nmol/L for PAM activity; 0.3‐10 000 nmol/L for agonist activity) in assay buffer (HBSS containing 20 mmol/L HEPES and 0.1% fatty acid‐free BSA) with or without an EC20 concentration of ACh. The inflection point (IP) and EC50 values were calculated using the following equation by GraphPad Prism 5 software (GraphPad Software Inc): Y=Bottom+(Top-Bottom)/1+10^(Log IPorEC50-X×HillSlope))
where X and Y are the log concentration of a compound and the percentage of Ca^2+ response, respectively, and Top and Bottom are the upper and lower plateaus, respectively.
On the technique in general: A change in cytosolic calcium serves as a functional read-out for many receptors and channels.

Consider `Cc1ccc(Cc2cc3c(=O)n([C@H]4CCCC[C@@H]4O)cnc3c3ccccc23)cn1` [MK‐7622, 3‐((1S,2S)‐2‐hydroxycyclohexyl)‐6‐((6‐methylpyridin‐3‐yl)methyl)benzo[h]quinazolin‐4(3H)‐one, reference compound], for which, in experiment [1], the “Basal IP1 level in the mouse hippocampus” value amounted to 0.99± 0.05 nmol/mg protein and the “magnitude of IP1 increase in mouse hippocampus after 13 days of pretreatment” value was “comparable to those after single administration”. In experiment [2], the “Cooperativity α” value worked out at 511 and the “Cooperativity Log α” value was 2.71 (2.48‐2.94). This compound also had an EC50 in experiment [3] of 1.32 nM.
As to `Cc1c(Cc2ccc(Cl)nc2)cc2c(c1Cl)OCN([C@H]1CCC[C@@H]1O)C2=O` [T‐495, 8‐chloro‐6‐((6‐chloropyridin‐3‐yl)methyl)‐3‐((1S,2S)‐2‐hydroxycyclopentyl)‐7‐methyl‐2,3‐dihydro‐4H‐1,3‐benzoxazin‐4‐one], in experiment [1], the “Basal IP1 level in the mouse hippocampus” value is given as 1.09± 0.03 nmol/mg protein and the “magnitude of IP1 increase in mouse hippocampus after 13 days of pretreatment” value was “comparable to those after single administration”. Further, in experiment [2], the “Cooperativity α” value is reported as 170 and the “Cooperativity Log α” value is reported as 2.23 (2.07‐2.40). The compound further gave an EC50 in experiment [3] of 2.29 nM.

(Values after article PMC6986443, “T‐495, a novel low cooperative M1 receptor positive allosteric modulator, improves memory deficits associated with cholinergic dysfunction and is characterized by low gastrointestinal side effect risk” (Pharmacology Research & Perspectives, 2020).)
